In patent US5185338A, “Medicament for treating cerebral insufficiency diseases, novel 2-(1-piperazinyl)-4-phenylcycloalkanopyrimidine derivatives, and process for the production thereof” (Dainippon Pharmaceutical Co., Ltd., priority 1989, dated 1993):
Where two headings read alike, the source gives them in different places.

What was measured:
[1] = Chem. Pharm. Bull., 31, 2254-2261 (1983); cited from earlier work
[2] = U.S. Pat. No. 3,915,976; U.S. Pat. No. 3,305,553; cited from earlier work
[3] = tested on: sodium nitrite-induced anemic hypoxia; test: Protective effect on sodium nitrite-induced anemic hypoxia; format: in vivo, mice (Std-ddY strain); conditions: 10 mg/kg i.p., 2 hours before sodium nitrite 225 mg/kg i.p.; vs sodium nitrite alone
Source text: Protective effect on sodium nitrite-induced anemic hypoxia:
It is known that sodium nitrite (NaNO2) induces anemic hypoxia by converting hemoglobin to metohemoglobin, resulting in a severe impairment of brain function and ultimately in death. Based on the above knowledge, prolongation of survival time after sodium nitrite treatment was used as an index for antihypoxic effect of the test compounds.
A group of 20 male mice (Std-ddY strain, 25-30 g) was intraperitoneally given a test compound (10 mg/kg), and 2 hours after the treatment with the test compound, a lethal amount (225 mg/kg) of sodium nitrite was intraperitoneally administered, and then, the survival time of each mouse was measured. The effect of the test compounds was assessed by the prolongation rate (%) of survival time compared with that of the animals treated with sodium nitrite alone.

[4] = molecular target: T1, dopamine (D2) receptor (Rattus norvegicus, UniProt P61169); test: Dopamine (D2) receptor binding assay, [3H] spiperone; design: species or system rats; conditions: rat brain crude synaptosome fractions
T1 construct: Crude synaptosome fractions prepared from some brain regions in rats were used as the receptor sources; from tissue
Protocol: (§1) Effect of binding to dopamine (D2), serotonin (S1, S2) and adrenaline (α1) receptor (in vitro receptor binding assay):
(§2) Dopamine (D2), serotonin (S1, S2) and adrenaline (α1) receptor binding assays were carried out according to the methods of I. Creese et al. [Eur. J. Pharmacol., 46, 377 (1977)], S. J. Peroutka et al. [Mol. Pharmacol., 16, 687 (1979)], J. E. Leysen et al. [Mol. Pharmacol., 21, 301 (1982)], and D. C. U'Prichard et al. [Mol. Pharmacol., 13, 454 (1977)], respectively.
(§3) Crude synaptosome fractions prepared from some brain regions in rats were used as the receptor sources, and [^3 H] spiperone (D2), [^3 H] serotonin (S1), [^3 H] ketanserin (S2) and [^3 H] WB-4101 (α1) were used as the labelled ligands. The binding assay was performed by incubating aliquots of synaptosome fraction in buffer solution (final volume 1 ml) containing the receptor source and the labelled ligand in the presence of a test compound having various concentration thereof for a fixed time. The assay was terminated by rapid filtration through Whatman GF/B glass fiber filters attached to a cell-harvester (Brandel) and radioactivity on the filters was counted with a scintillation counter. Specific binding was calculated as a difference between the amount of radioactivity in the assay group and that in the control group which was separately measured likewise in the presence of an excess amount of an unlabelled ligand [spiperone (D2), serotonin (S1), methysergide (S2) and prazosin (α1)] instead of […]. The IC50 value of the test compounds (i.e. the concentration causing 50% inhibition of the labelled ligand specific binding) was determined by probit analysis.

[5] = tested on: mice; test: Acute toxicity; format: in vivo, mice (Std-ddY strain); conditions: 200 mg/kg orally; 7 days observation; 5 male mice
Protocol: Experiment 8 Acute toxicity
A group of 5 male mice (Std-ddY strain, 25-30 g) was used. The test compound (200 mg/kg) was orally administered to the test animal in the form of a 0.5% tragacanth solution or suspension, and for 7 days after the administration of the test compound, the lethality of animals was observed.

[6] = tested on: scopolamine-induced deficit of spontaneous alternation behavior; test: Improving effect on scopolamine-induced deficit of spontaneous alternation behavior (T-maze); format: in vivo, mice (Std-ddY strain); conditions: scopolamine hydrobromide 1 mg/kg, non-dosed mice=100%
Source text: Improving effect on scopolamine-induced deficit of spontaneous alternation behavior:
A group of 15-25 male mice (Std-ddY strain, 22-28 g) was used for evaluating effect of the test compounds on scopolamine-induced deficit of spontaneous alternation in a T-maze, which is a known animal model of memory impairment due to hypofunction of the cholinergic nervous system. The T-maze used consists of a stem and two arms which are 25 cm long, 5 cm wide and 10 cm high. The first 10 cm of the stem and last 10 cm of each arm are divided by sliding doors into start and goal boxes.
A test compound and scopolamine hydrobromide (1 mg/kg) were intraperitoneally administered to each mouse, and after 30 minutes a test of spontaneous alternation task in the T-maze was continuously repeated for 8 trials. Commonly, naive mice alternate each (right and left) goal box in turn, but scopolamine-treated animals tend to enter the same goal box repeatedly. The effect of the test compounds was expressed as % improvement (complete improvement to the alternation level of non-dosed mice=100%).

[7] = molecular target: T2, serotonin (S2) receptor (Rattus norvegicus, UniProt P14842); test: Serotonin (S2) receptor binding assay, [3H] ketanserin; design: species or system rats; conditions: rat brain crude synaptosome fractions
T2 construct: Crude synaptosome fractions prepared from some brain regions in rats were used as the receptor sources; from tissue
Protocol: as §1, §2, §3

[8] = tested on: scopolamine-induced hypermotility; test: Antagonistic effect on scopolamine-induced hypermotility; format: in vivo, mice (Std-ddY strain); conditions: Mus musculus, po, read-out: Inhibitory ratio (% antagonism of scopolamine-induced hypermotility)
Protocol: Antagonistic effect on scopolamine-induced hypermotility:
A test compound was orally administered to each mouse, and 90 minutes after the administration, each one test animal was placed within a test cage (25×35×30 cm). After 30 minutes, scopolamine hydrobromide (1 mg/kg) was intraperitoneally administered to the mice and then the motility was measured with Animex activity meter for 30 minutes. The effect of test compounds was expressed as % antagonism (complete antagonism to the motility level of non-dosed animals=100%).

[9] = molecular target: serotonin (S1) receptor; test: Serotonin (S1) receptor binding assay, [3H] serotonin; design: species or system rats; conditions: rat brain crude synaptosome fractions
Protocol: as §1, §2, §3

[10] = tested on: brain serotonin metabolite, 5-hydroxyindole-3-acetic acid (5-HIAA); test: Increasing effect on concentration of brain serotonin metabolite (5-HIAA); format: in vivo, mice (Std-ddY strain); conditions: Mus musculus, 2 h, two hours after treatment, 5-HIAA level of non-dosed animals=100%
Source text: Increasing effect on concentration of brain serotonin metabolite:
A group of 5 male mice (Std-ddY strain, 25-30 g) was used for examining effect of the test compounds on concentration of a brain serotonin metabolite, 5-hydroxyindole-3-acetic acid (5-HIAA).
Mice were killed by decapitation two hours after the treatment with the test compounds. Brains were quickly taken out, homogenized in 1N formic acid-acetone solution, and centrifuged in a refrigerated ultracentrifuge. The supernatant was evaporated by blowing with N2 gas, and then, the residue was again dissolved in 0.01N acetic acid, and served for determining 5-HIAA concentration by high performance liquid chromatography with electrochemical detection. The effect of the test compounds on 5-HIAA concentration was shown as % of control (5-HIAA level of non-dosed animals=100%).

[11] = molecular target: adrenaline (α1) receptor; test: Adrenaline (α1) receptor binding assay, [3H] WB-4101; design: species or system rats; conditions: rat brain crude synaptosome fractions
Protocol: as §1, §2, §3

[12] = tested on: cycloheximide-induced amnesia of passive avoidance response; test: Improving effect on cycloheximide-induced amnesia of passive avoidance response; format: in vivo, mice (Std-ddY strain); conditions: cycloheximide 60 mg/kg s.c., retention trial at 24 hours, non-dosed animals=100%
Source text: Improving effect on cycloheximide-induced amnesia of passive avoidance response:
Anti-amnesic effect of the test compounds was examined using mice given cycloheximide which is a known amnesia-inducing agent.
A group of 15-20 male mice (Std-ddY strain, 27-33 g) was subjected to training and retention trials for a passive avoidance task in a step-down apparatus (30×30×50 cm) with a grid floor and a wooden platform (4×4×4 cm) in a center of the floor. In the training trial, each mouse was first placed on the platform, and when the mouse stepped down on the grid floor, an electric shock (1 Hz, 0.5 sec, 60 VDC) was delivered to the feet for 15 seconds. Immediately after the training trial, cycloheximide (60 mg/kg, s.c.) and a test compound (i.p.) were administered. The retention trial was carried out 24 hours thereafter, and the time from placing again each mouse on the platform until stepping down on the grid floor (step-down latency) was measured. The step-down latency in the retention trial was markedly shortened by treatment of cycloheximide (amnesia). The effect of test compounds was assessed by % improvement (complete improvement to the latency level of non-dosed animals=100%).

[13] = tested on: reserpine-induced hypothermia; test: Anti-reserpine effect (reserpine-induced hypothermia); format: in vivo, mice (Std-ddY strain); conditions: 100 mg/kg orally; reserpine 5 mg/kg s.c.; rectal temperature at 4 hours; complete inhibition=100%
Protocol: A group of 5 male mice (Std-ddY strain, 22-25 g) was used for examining the antagonistic effect of the test compounds on reserpine-induced hypothermia, which is known as a screening method for the antidepressant drug.
Reserpine (5 mg/kg) was subcutaneously administered to the mice and further a test compound was orally administered thereto. Four hours after the administration, rectal temperature of the mice was measured. The effect of the test compounds was estimated by % inhibition (complete inhibition to the hypothermia by reserpine in non-dosed animals=100%).

[14] = 30 mg/kg, orally, scopolamine hydrobromide 1 mg/kg i.p., complete antagonism to motility level of non-dosed animals=100%

T2 sequence (P14842 whole entry): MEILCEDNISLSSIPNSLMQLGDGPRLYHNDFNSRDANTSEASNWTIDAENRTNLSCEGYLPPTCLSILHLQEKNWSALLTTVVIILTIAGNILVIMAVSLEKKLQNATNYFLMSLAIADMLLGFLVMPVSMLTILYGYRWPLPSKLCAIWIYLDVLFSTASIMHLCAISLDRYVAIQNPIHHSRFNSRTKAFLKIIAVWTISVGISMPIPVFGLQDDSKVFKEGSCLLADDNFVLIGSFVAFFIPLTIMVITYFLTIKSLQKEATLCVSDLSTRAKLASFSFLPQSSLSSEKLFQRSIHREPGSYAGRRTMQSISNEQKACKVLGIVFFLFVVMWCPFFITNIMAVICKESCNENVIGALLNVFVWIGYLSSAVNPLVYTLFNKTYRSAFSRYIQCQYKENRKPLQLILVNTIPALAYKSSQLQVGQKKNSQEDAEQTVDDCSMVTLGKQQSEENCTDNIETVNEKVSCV
T1 sequence (P61169 whole entry): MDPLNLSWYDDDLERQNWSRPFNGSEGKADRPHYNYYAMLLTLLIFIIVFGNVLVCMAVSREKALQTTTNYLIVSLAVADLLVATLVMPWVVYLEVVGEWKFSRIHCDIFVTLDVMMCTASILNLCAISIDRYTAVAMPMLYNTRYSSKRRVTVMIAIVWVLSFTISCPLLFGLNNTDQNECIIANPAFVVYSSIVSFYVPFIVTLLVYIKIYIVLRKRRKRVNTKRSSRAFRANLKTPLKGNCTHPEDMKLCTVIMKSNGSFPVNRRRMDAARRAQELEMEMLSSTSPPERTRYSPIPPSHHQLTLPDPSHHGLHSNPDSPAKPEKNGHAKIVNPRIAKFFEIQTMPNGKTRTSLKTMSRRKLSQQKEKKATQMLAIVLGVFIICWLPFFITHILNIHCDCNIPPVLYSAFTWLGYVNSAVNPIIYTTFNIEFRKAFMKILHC

In the case of `c1ccc(-c2nc(N3CCNCC3)nc3c2CCCC3)cc1` [4-phenyl-2-(1-piperazinyl)-5,6,7,8-tetrahydroquinazoline], the Hypoglycemic activity [1] is listed as “weak hypoglycemic activity”.
In the case of `c1ccc(CN2CCN(c3nc4c(c(-c5ccccc5)n3)CCCC4)CC2)cc1` [4-phenyl-2-(4-benzyl-1-piperazinyl)-5,6,7,8-tetrahydroquinazoline], the Hypoglycemic activity [1] is given as “weak hypoglycemic activity”.
For `CN1CCN(c2nc3c(c(-c4ccccc4)n2)CCCCC3)CC1` [6,7,8,9-tetrahydro-2-(4-methyl-1-piperazinyl)-4-phenyl-5H-cyclohepta[d]pyrimidine], the Anti-inflammatory activity [2] is listed as “have anti-inflammatory activity”.
In the case of `CN1CCN(c2nc3c(c(-c4ccccc4)n2)CCC3)CC1` [6,7-dihydro-2-(4-methyl-1-piperazinyl)-4-phenyl-5H-cyclopenta[d]pyrimidine], the Anti-inflammatory activity [2] is given as “have anti-inflammatory activity”.
In the case of `Fc1ccc(-c2nc(N3CCNCC3)nc3c2CCC3)cc1` [Ex. 1, 2-(1-piperazinyl)-4-(4-fluorophenyl)-6,7-dihydro-5H-cyclopentapyrimidine], the “Prolongation rate of survival time” value [3] is reported as 36.7%, the IC50 [4] is reported as 920 nM and the Lethality of animals [5] is reported as “no animal was died”. For the same molecule, the “Improvement of scopolamine-induced deficit of spontaneous alternation” value (“Improvement … of spontaneous alternation” for short) ([6]; 0.02 mg/kg i.p.) was 47.8%, the “Improvement … of spontaneous alternation” value ([6]; 0.5 mg/kg i.p.) was 51.9% and the IC50 [7] was 29 nM. It also gave an inhibition in vivo at 3 mg/kg [8] of 60.7%, an IC50 [9] of 750 nM and a response vs control in vivo at 100 mg/kg [10] of 150%. For the same molecule, the IC50 [11] was 1100 nM, the “Improvement of cycloheximide-induced amnesia (step-down latency)” value (“Improvement … (step-down latency)” for short) ([12]; 0.5 mg/kg i.p.) was 33.8% and the “Improvement … (step-down latency)” value ([12]; 2.0 mg/kg i.p.) was 65.8%.
For `Fc1ccc(-c2nc(N3CCNCC3)nc3c2CCCCC3)cc1` [Ex. 2, 2-(1-piperazinyl)-4-(4-fluorophenyl)-6,7,8,9-tetrahydro-5H-cycloheptapyrimidine], the IC50 [4] was 750 nM, the Lethality of animals [5] was “no animal was died” and the “Improvement … of spontaneous alternation” value ([6]; 2.0 mg/kg i.p.) was 39.1%. For the same molecule, the IC50 [7] was 9.6 nM, the inhibition in vivo at 30 mg/kg [8] was 69.2% and the IC50 [9] was 3000 nM. For the same molecule, the response vs control in vivo at 100 mg/kg [10] was 135%, the IC50 [11] was 3400 nM and the “Improvement … (step-down latency)” value ([12]; 0.5 mg/kg i.p.) was 93.7%. For the same molecule, the “Improvement … (step-down latency)” value ([12]; 2.0 mg/kg i.p.) was 72.8%.
In the case of `c1ccc(-c2nc(N3CCNCC3)nc3c2CCCCC3)cc1` [Ex. 7, 2-(1-Piperazinyl)-4-phenyl-6,7,8,9-tetrahydro-5H-cycloheptapyrimidine], the IC50 [4] is reported as 2000 nM, the “Improvement … of spontaneous alternation” value ([6]; 10.0 mg/kg i.p.) is reported as 44.0% and the IC50 [7] is reported as 38 nM. For the same molecule, the inhibition in vivo at 30 mg/kg [8, 14] was 78.2% and the “Improvement … (step-down latency)” value ([12]; 0.5 mg/kg i.p.) was 70.4%.
In the case of `c1ccc(-c2nc(N3CCNCC3)nc3c2CCCCCC3)cc1` [Ex. 9, 2-(1-Piperazinyl)-4-phenyl-5,6,7,8,9,10-hexahydrocyclooctapyrimidine], the Lethality of animals [5] is reported as “no animal was died”, the “Improvement … of spontaneous alternation” value ([6]; 2.0 mg/kg i.p.) is reported as 36.7% and the inhibition in vivo at 10 mg/kg ([8]; 10 mg/kg, orally, scopolamine hydrobromide 1 mg/kg i.p., complete antagonism to motility level of non-dosed animals=100%) is reported as 60.4%. The “Improvement … (step-down latency)” value ([12]; 0.5 mg/kg i.p.) was 85.8%.
In the case of `Fc1ccc(-c2nc(N3CCNCC3)nc3c2CCCCCC3)cc1` [Ex. 10, 2-(1-Piperazinyl)-4-(4-fluorophenyl)-5,6,7,8,9,10-hexahydrocyclooctapyrimidine], the IC50 [4] is reported as 130 nM, the “Improvement … of spontaneous alternation” value ([6]; 2.0 mg/kg i.p.) is reported as 63.0% and the IC50 [7] is reported as 19 nM. It also gave an inhibition in vivo at 3 mg/kg [8] of 50.6%, an IC50 [9] of 1300 nM and an IC50 [11] of 1200 nM. For the same molecule, the “Improvement … (step-down latency)” value ([12]; 0.5 mg/kg i.p.) was 67.1%.
Work on `CN1CCN(c2nc3c(c(-c4ccc(F)cc4)n2)CCCC3)CC1` [Ex. 28] yielded an IC50 [4] of 350 nM, an IC50 [7] of 87 nM and an inhibition in vivo at 30 mg/kg [8, 14] of 96.4%. The “Inhibitory ratio (% inhibition of reserpine-induced hypothermia)” value [13] was 37% and the response vs control in vivo at 100 mg/kg [10] was 156%.
